According to ChEMBL document CHEMBL1201862, “PubChem BioAssay data set” (2004):
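Test compounds were applied to cells in 96-well plates for 48 hours at 5 doses. GI50: concentration for 50% inhibition of growth.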 Calls of active or inactive are those of the source. No stated cut-off is given here; in the data, active = GI50 up to about 1.1 µM and inactive = higher.

Key:
Assay in all cases: DTP human tumour cell line panel, 48 h
NCI-H23 = system: NCI-H23
OVCAR-3 = system: OVCAR-3
UACC-257 = system: UACC-257
786-0 = system: 786-0
PC-3 = system: PC-3
NCI-H460 = system: NCI-H460
HOP-62 = system: HOP-62
CAKI-1 = system: CAKI-1
UO-31 = system: UO-31
SW-620 = system: SW-620
OVCAR-5 = system: OVCAR-5
SF-539 = system: SF-539
MDA-MB-231 = system: MDA-MB-231
TK-10 = system: TK-10
RPMI-8226 = system: RPMI-8226
LOX IMVI = system: LOX IMVI
NCI-H226 = system: NCI-H226
SNB-75 = system: SNB-75
UACC-62 = system: UACC-62
MOLT-4 = system: MOLT-4

Measured: GI50

N#Cc1c(-c2ccccc2)c(/N=N/c2ccc(Cl)cc2)c(=O)n2c1[nH]c1ccccc12
inactive: NCI-H23 > 100 µM | OVCAR-3 > 100 µM | UACC-257 > 100 µM | 786-0 23.6 µM | PC-3 > 100 µM | NCI-H460 35.5 µM | HOP-62 27.2 µM | CAKI-1 24.3 µM | UO-31 46.9 µM | SW-620 > 100 µM | OVCAR-5 > 100 µM | SF-539 > 100 µM | MDA-MB-231 > 100 µM | TK-10 23.3 µM | RPMI-8226 39.9 µM | LOX IMVI > 100 µM | NCI-H226 65.9 µM | SNB-75 71 µM

O=C1/C(=C/c2ccc(Cl)cc2)CSc2ccccc21
inactive: UACC-62 3.34 µM | NCI-H23 21.3 µM | OVCAR-3 22.3 µM | UACC-257 12.7 µM | 786-0 17.5 µM | PC-3 14.1 µM | NCI-H460 28.7 µM | HOP-62 20.5 µM | MOLT-4 5.55 µM | CAKI-1 19.4 µM | UO-31 17.6 µM | SW-620 3.71 µM | SF-539 17.8 µM | MDA-MB-231 19 µM | TK-10 42.2 µM | RPMI-8226 2.31 µM | LOX IMVI 2.68 µM | NCI-H226 17.4 µM | SNB-75 31.9 µM

C=CCn1c(=O)c(C(=O)Nc2nc(C34CC5CC(CC(C5)C3)C4)cs2)c(O)c2ccccc21
inactive: NCI-H23 34.3 µM | OVCAR-3 49.3 µM | UACC-257 10.2 µM | 786-0 39.8 µM | PC-3 43.4 µM | NCI-H460 32.9 µM | HOP-62 30.6 µM | MOLT-4 27.4 µM | CAKI-1 58.9 µM | UO-31 31.8 µM | SW-620 23.5 µM | OVCAR-5 91.6 µM | SF-539 60.8 µM | MDA-MB-231 22 µM | TK-10 82.8 µM | RPMI-8226 20.1 µM | LOX IMVI 34 µM | NCI-H226 50.7 µM | SNB-75 > 100 µM

COc1cccc2[nH]c(-c3ccccn3)nc12
inactive: UACC-62 > 100 µM | NCI-H23 > 100 µM | OVCAR-3 55.7 µM | UACC-257 > 100 µM | 786-0 > 100 µM | PC-3 > 100 µM | NCI-H460 86.7 µM | HOP-62 74 µM | CAKI-1 77.6 µM | UO-31 44.8 µM | SW-620 > 100 µM | OVCAR-5 > 100 µM | SF-539 > 100 µM | MDA-MB-231 > 100 µM | TK-10 > 100 µM | RPMI-8226 32.4 µM | LOX IMVI > 100 µM | NCI-H226 > 100 µM | SNB-75 > 100 µM

N=C(N)N/N=C/c1nc2sccn2c1[N+](=O)[O-]
inactive: UACC-62 30.9 µM | NCI-H23 18.1 µM | OVCAR-3 17.9 µM | UACC-257 16.3 µM | 786-0 43 µM | PC-3 35.2 µM | NCI-H460 18.5 µM | HOP-62 37.8 µM | CAKI-1 > 100 µM | UO-31 65.3 µM | SW-620 29.4 µM | OVCAR-5 > 100 µM | SF-539 36.8 µM | MDA-MB-231 26.2 µM | TK-10 85.3 µM | RPMI-8226 82.4 µM | LOX IMVI 21.4 µM | NCI-H226 81.1 µM | SNB-75 11.3 µM

c1ccc2c3c([nH]c2c1)C1CCCN1CC3 (stereo not drawn)
inactive: NCI-H23 > 10 µM | OVCAR-3 > 10 µM | UACC-257 > 10 µM | 786-0 > 10 µM | PC-3 > 10 µM | NCI-H460 > 10 µM | HOP-62 > 10 µM | MOLT-4 > 10 µM | CAKI-1 > 10 µM | UO-31 > 10 µM | SW-620 > 10 µM | OVCAR-5 > 10 µM | SF-539 > 10 µM | MDA-MB-231 > 10 µM | TK-10 > 10 µM | RPMI-8226 > 10 µM | LOX IMVI > 10 µM | NCI-H226 > 10 µM | SNB-75 > 10 µM
